Experimental data reported in US5372813A (priority 1992, dated 1994).
Like-named read-outs stand apart in the source and are kept apart here.

Experiments:
[1] = in vivo brain uptake, clearance and regional distribution of 5-125I-6-NQP after i.v. injection; settings: rat
Description: Whole body distribution studies were performed in rats in accordance with the method of Carl Mathis, et al described in Nuclear Medicine and Biology 19: 571-588 (1992).
The ratios of regional activity concentrations to cerebellar concentrations are plotted in the left panel of FIG. 4. […] Also plotted in the right panel of FIG. 4 is the time course of specific binding (total regional radioactivity cerebellar radioactivity) in a representative tissue.

serotonin uptake sites = serotonin uptake sites (Rattus norvegicus, UniProt P31652); test: Scatchard saturation binding of 5-125I-6-NQP to isolated rat brain membranes, control and PCA-treated; settings: PCA-treated versus control rats, in vitro, in words
[2] = metabolite determination in brain and thyroid radioactivity after injection of 5-125I-6-NQP; assay type: in vivo, rat
Description: The brains of rats which had been injected with 25 μCi of 5-^125 I-6-NQP 6 h earlier were removed, homogenized, and repeatedly extracted with ethyl acetate and added cold 5-I-6-NQP carrier. The ethyl acetate fractions were pooled and evaporated, and the concentrate subject to TLC and HPLC (with fraction collection) analyses to determine metabolites in the brain.

serotonin uptake system = test: competition of known ligands against 5-125I-6-NQP in membrane preparation; assay type: binding, rat; settings: versus e.g. sertraline and fluoxetine, in words
Description: In the second set of experiments, competition experiments were performed with known agonist and antagonists to the serotonin uptake system, post synaptic serotonin receptors, and a receptors of other brain receptor systems. These compounds were incubated against 5-^125 I-6-NQP to determine the concentration needed to displace 5-^125 I-6-NQP from the membrane preparations. The strongest competitors were those specific for the serotonin uptake system, (FIG. 2).

5-HT reuptake complex [3] = test: ex vivo autoradiography of rat brain; settings: 25 μCi, 2, 6 and 12 h post injection, in words
Description: Ex vivo autoradiography was performed on rats injected with 25 μCi 5-^125 I-6-NQP and killed at 2, 6 and 12 h post injection.

[4] = molecular target: T1, 5-HT (serotonin) reuptake complex (Rattus norvegicus, UniProt P31652); test: competition with 3H-paroxetine for the 5-HT reuptake complex in rat cortical brain homogenates (Ki); assay type: binding; settings: Ki of analogue relative to Ki of 6-NQP
T1 construct: from tissue; host or cells: rat cortical brain homogenates
Description: A potency ratio was also determined by comparing the Ki of the analogue to the Ki experimentally determined for the unsubstituted 6-Nitroquipazine.

[5] = molecular target: T1, 5-HT (serotonin) reuptake complex; test: as above; assay type: binding
5-HT reuptake complex [6] = test: in vivo blocking of 5-125I-6-NQP brain binding by co-injected drugs; parameters: species or system rat; settings: co-injection, LSD 0.5 mg/kg; GBR-12909 and DMI 2 mg/kg, in words
From the text: A critical test of the in vivo behavior of the radioligand is the ability to block its specific binding.

depression = settings: patients, in words; cited from earlier work
5-HT reuptake site = test: neurotoxin (PCA) pretreatment study, 5-125I-6-NQP binding; assay type: in vivo, rat; settings: PCA 10 mg/kg for 2 days
From the text: The in vivo results were consistent with the reduction in Bmax measured by in vitro binding methods and indicated up to a 90% reduction in 5-HT reuptake site densities in lesioned rats.

[7] = rat cortical brain homogenates, 3H-paroxetine displacement, read-out: In vitro Inhibition Constants (Ki) for the 5-HT Reuptake Site

T1 sequence (P31652 whole entry, one chain of several): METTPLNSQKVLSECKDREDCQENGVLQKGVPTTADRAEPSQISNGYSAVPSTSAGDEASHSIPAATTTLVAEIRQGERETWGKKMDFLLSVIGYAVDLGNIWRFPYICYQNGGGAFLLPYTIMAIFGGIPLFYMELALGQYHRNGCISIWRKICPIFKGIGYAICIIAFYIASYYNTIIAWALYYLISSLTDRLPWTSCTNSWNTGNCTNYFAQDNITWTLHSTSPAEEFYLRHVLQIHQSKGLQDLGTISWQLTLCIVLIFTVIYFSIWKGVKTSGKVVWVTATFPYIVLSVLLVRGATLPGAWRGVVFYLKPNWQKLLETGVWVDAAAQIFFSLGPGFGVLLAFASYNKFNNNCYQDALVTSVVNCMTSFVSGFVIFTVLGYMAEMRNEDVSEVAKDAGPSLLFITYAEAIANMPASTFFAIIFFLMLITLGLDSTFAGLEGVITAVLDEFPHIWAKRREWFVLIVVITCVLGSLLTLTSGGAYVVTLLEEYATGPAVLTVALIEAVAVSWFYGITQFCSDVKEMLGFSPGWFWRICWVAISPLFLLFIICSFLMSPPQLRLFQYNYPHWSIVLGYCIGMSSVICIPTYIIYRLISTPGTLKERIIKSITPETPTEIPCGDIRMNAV
serotonin uptake sites, sequence (P31652 whole entry): as the sequence (P31652 whole entry, one chain of several) above

Compound: O=[N+]([O-])c1ccc2nc(N3CCNCC3)ccc2c1[125I] [5-^125 I-6-NQP, [^125 I]5-Iodo-6-nitro-2-piperazinylquinoline]
- whole brain accumulation ([1]; 25 μCi (11 pmoles) i.v., 5 min post injection): 1.9 % of the injected dose
- ratios of regional to cerebellar activity concentrations ([1]; i.v., 12 h period post injection, in words): increase in a nearly linear manner over the 12 h period post injection
- brain penetration ([1]; i.v., in words): good brain penetration
- clearance of nonspecific binding (cerebellum) versus regions of high 5-HT innervation ([1]; i.v., in words): more rapid than that of radioactivity clearance from brain regions containing high concentrations of 5-HT innervation
- loss of activity from the brain ([1]; i.v., over 12 h, in words): slow steady loss of activity from the brain over 12 h
- affinity (Kd) after PCA treatment (serotonin uptake sites): little change in the affinity (Kd)
- affinity (Kd) after PCA treatment (serotonin uptake sites; listed as INQUIP): without change in affinity
- total binding (Bmax) after PCA treatment (serotonin uptake sites; listed as INQUIP): enormous reduction in binding after PCA treatment
- remaining at 6 h ([2]; 25 uCi, rat brain, 25 μCi, 6 h, read-out: unmetabolized radioligand in brain (organic phase radioactivity)): > 98%
- metabolic deiodination in vivo ([2]; rat, 6 h, in words): metabolic deiodination of 5-^125 I-6-NQP occurs in vivo in rats
- radioactivity in the thyroid gland ([2]; rat, 6 h post injection): 11 % of the injected dose
- relative potency for the uptake site versus other serotonin uptake ligands (serotonin uptake system): greater than that observed for other serotonin uptake ligands
- binding distribution in rat brain by ex vivo autoradiography (5-HT reuptake complex [3]): consistent with the known neuroanatomical distribution of the 5-HT reuptake complex

Compound: O=[N+]([O-])c1ccc2nc(N3CCNCC3)ccc2c1 [6-NQP, 6-nitro-2-N-piperazinylquinoline, reference compound]
- Potency Ratio [4]: 1
- Ki [5, 7]: 0.23 ± 0.06 nM

Compound: O=[N+]([O-])c1cc2ccc(N3CCNCC3)nc2cc1Br [7-Br-6-NQP, 7-Bromo-6-nitro-2-piperazinylquinoline]
- Potency Ratio [4]: 18
- Ki [5]: 4.1 ± 1.5 nM

Compound: O=[N+]([O-])c1ccc2nc(N3CCNCC3)ccc2c1Br [5-Br-6-NQP, 5-Bromo-6-nitro-2-piperazinylquinoline]
- Potency Ratio [4]: 0.57
- Ki [5]: 0.13 ± 0.02 nM

Compound: CCN(CC)C(=O)[C@@H]1C=C2c3cccc4[nH]cc(c34)C[C@H]2N(C)C1 [LSD]
- radioactivity concentrations in brain regions (5-HT reuptake complex [6]): little effect on radioactivity concentrations in these regions

Compound: Fc1ccc(C(OCCN2CCN(CCCc3ccccc3)CC2)c2ccc(F)cc2)cc1 [GBR-12909]
- radioactivity concentrations in brain regions (5-HT reuptake complex [6]): little effect on radioactivity concentrations in these regions

Compound: CNCCC(Oc1ccc(C(F)(F)F)cc1)c1ccccc1 (racemic) [fluoxetine, (±)-N--Methyl-3-Phenyl-3-[(ααα-trifluoro-p-tolyl)oxy]propylamine]
- anti-depressant efficacy compared with certain tricyclic amine drugs (depression): equal anti-depressant efficacy
- total side effects and dropouts compared with certain tricyclic amine drugs (depression): fewer total side effects and dropouts

Compound: CC(N)Cc1ccc(Cl)cc1 (stereo not shown) [PCA, p-chloroamphetamine]
- specifically bound radioactivity after PCA pretreatment (5-HT reuptake site; i.v. 5-125I-6-NQP two weeks later, in words): regionally selective reduction of specifically bound radioactivity
- reduction in 5-HT reuptake site densities in lesioned rats (5-HT reuptake site; two weeks before): ≤ 90%

Compound: O=[N+]([O-])c1cc(Br)c2nc(N3CCNCC3)ccc2c1 [8-Br-6-NQP, 8-Bromo-6-nitro-2-piperazinylquinoline]
- Potency Ratio [4]: 78
- Ki [5]: 18 ± 3 nM

Compound: O=[N+]([O-])c1ccc2nc(N3CCNCC3)cc(Br)c2c1 [4-Br-6-NQP]
- Potency Ratio [4]: 870
- Ki [5, 7]: 200 ± 80 nM

Compound: O=[N+]([O-])c1ccc2nc(N3CCNCC3)c(Br)cc2c1 [3-Br-6-NQP, 3-Bromo-6-nitro-2-piperazinylquinoline]
- Potency Ratio [4]: 42
- Ki [5]: 9.6 ± 2.6 nM
